On the set-up of data set [1]: species or system human. The following applies: in vivo; for Plasma-to-blood ratio: human, iv, 0.5 MBq/kg. Here is the method:
Dynamic PET was initiated at administration and continued for 60 min. Blood sampling for glucose was performed before and during the scan as a safety precaution, as exendin4 can stimulate insulin secretion at pharmacologic doses. For 3 individuals, arterial sampling was performed at 5, 30, and 60 min after ^68Ga-exendin4 administration to measure the radioactivity in whole blood and plasma and to determine the metabolic stability of the tracer (the methods are shown in the supplemental materials, available at http://jnm.snmjournals.org) (17). Abdominal tissues of interest, including pancreas (target tissue), aorta (input signal), kidney (excretion), and spleen and erector spinae muscle (negative reference tissues) were manually segmented on coregistered PET/CT images using […] software, version 2.9 (Turku PET Center). The aorta was delineated by segmenting single voxels fully within the lumen of the descending aorta. The arterial plasma image-derived input function was generated by correcting the aorta signal for plasma-to-whole-blood partitioning and for the percentage of intact ^68Ga-exendin4 during the scan (based on a population estimate).

The test system of data set [2] is GLP1R. The following applies: in words, cited from earlier work. Here is the method:
Exendin4 is a synthetic peptide that binds to GLP1R with nanomolar affinity and high specificity ([4]). […] In the absence of suitable antagonists, agonists such as exendin4 can be used as PET tracers, but care must be taken to avoid unwanted pharmacologic effects. […] Doses of around 0.5 µg/kg elicit up to 50% blocking of the signal.

Data set [3] has as its target T1, GLP1R (Macaca fascicularis, UniProt F8V479).
T1 construct: from tissue; host or cells: pancreas of living cynomolgus monkeys (in vivo PET)
The data set is described as follows: 68Ga-exendin4 PET dose escalation (self-blocking) study in NHP pancreas, Logan Vt. It is filed as in vivo, cynomolgus NHPs. The conditions noted are these: Vt of 68Ga-exendin4 vs coinjected unlabeled precursor peptide dose, 12 scans, estimated. The procedure:
A ^68Ga-exendin4 PET/CT imaging study on healthy cynomolgus NHPs was in part reported and described in detail previously ([5]). Briefly, NHPs were scanned by ^68Ga-exendin4 PET using a dose escalation study design in which several examinations were performed, several hours apart, over the course of one or several experimental days. Each subsequent scan entailed a higher peptide mass and radioactive dose to minimize influence from the preceding scan (Table 1). The resulting dataset enabled analysis of the self-blocking effect of the increasing amounts of coinjected unlabeled exendin4 precursor peptide.
Previously, only the simplified SUV analysis of 3 of the NHPs (8 scans) was reported ([5]). In preparation for the design of the clinical study, to better understand the peptide doses at which self-blocking starts to occur, we reanalyzed the dynamic NHP data from all 12 scans by graphical analysis using an image-derived blood plasma input.
Pancreas and other tissues of interest (such as spleen as a negative reference tissue) were delineated using PMOD, version 4.0 (PMOD Technologies). The PET signal for each tissue and time frame was corrected for the injected amount, and the image-derived input function was extracted by segmenting voxels fully within the lumen of the descending aorta as identified on early PET frames and coregistered CT projections. […]

Another data set has as its target T2, GLP1R in the pancreas (Homo sapiens, UniProt P43220).
T2 construct: underwent PET/CT scanning for GLP1R availability in the pancreas (^68Ga-exendin4); from tissue; host or cells: pancreas of living individuals with type 2 diabetes (in vivo PET/CT)
Type of data set: in vivo. The following applies: humans with T2D, peptide dose less than 0.2 µg/kg; no negative correlation between peptide mass dose and net Ki. The procedure:
The PET assessments were performed 3 h after a standardized meal followed by fasting, to minimize the variability in GLP1 levels at the time of scanning. The individuals were examined over the abdomen with a Discovery MI PET/CT scanner (20-cm field of view; GE Healthcare). Low-dose CT was performed for attenuation correction and anatomic coregistration of PET images. The dose of the CT scan was limited by dosimetry considerations, given that each individual underwent up to 4 PET/CT examinations over the entire clinical study. A 0.5 MBq/kg target dose of ^68Ga-exendin4 (0.46 ± 0.03 MBq/kg, corresponding to 0.14 ± 0.04 μg of peptide per kilogram) was administered intravenously as a bolus. The amount of administered ^68Ga-exendin4 was based primarily on limiting the associated dose of DO3A-VS-exendin4 precursor peptide to below 0.2 μg/kg. This limit was imposed to minimize any self-blocking, and the cutoff was determined from the NHP dose escalation studies. Dynamic PET was initiated at administration and continued for 60 min. […] For 3 individuals, arterial sampling was performed at 5, 30, and 60 min after ^68Ga-exendin4 administration to measure the radioactivity in whole blood and plasma and to determine the metabolic stability of the tracer (the methods are shown in the supplemental materials, available at http://jnm.snmjournals.org) (17). […]

Data set [4] has as its system GLP1R. The following applies: in words; cited from earlier work. Here is the method:
In the absence of suitable antagonists, agonists such as exendin4 can be used as PET tracers, but care must be taken to avoid unwanted pharmacologic effects. […] Doses of around 0.5 µg/kg elicit up to 50% blocking of the signal.

Read-outs that look alike come from different tables or passages of the source.

T2 sequence (P43220 24-463): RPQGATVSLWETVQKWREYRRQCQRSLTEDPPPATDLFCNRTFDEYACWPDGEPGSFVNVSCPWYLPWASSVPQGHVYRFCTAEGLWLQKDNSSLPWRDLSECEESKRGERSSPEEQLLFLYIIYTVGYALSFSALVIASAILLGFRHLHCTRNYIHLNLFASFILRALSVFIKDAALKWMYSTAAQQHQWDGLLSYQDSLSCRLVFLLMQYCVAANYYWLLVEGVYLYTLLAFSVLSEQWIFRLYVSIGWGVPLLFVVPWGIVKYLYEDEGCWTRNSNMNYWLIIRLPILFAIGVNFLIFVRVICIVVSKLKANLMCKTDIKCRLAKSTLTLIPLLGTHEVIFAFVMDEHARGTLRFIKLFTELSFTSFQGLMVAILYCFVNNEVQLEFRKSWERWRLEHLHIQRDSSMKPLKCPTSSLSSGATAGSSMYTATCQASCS
T1 sequence (F8V479 24-463): as the sequence (P43220 24-463) above, with S112N, F120S, S202G, L205V, L237F, W241R, I249V counted along it

Turning to ^68Ga-DO3A-VS-exendin4 [^68Ga-exendin4], the Plasma-to-blood ratio in data set [1] (5 min) is given as 1.76 ± 0.06 1/1; in data set [1] (0.5 h), 1.80 ± 0.05 1/1; in data set [1] (1 h), 1.79 ± 0.05 1/1. Further, in data set [1], the plasma partitioning result is given as “≈ 1.8”. Moreover, the “affinity for GLP1R” value with GLP1R [2] (radiolabeled tracer) is on record as “nanomolar range”.

Turning to DO3A-VS-exendin4, the “dose inducing a 50% decrease in binding (in vivo half-maximal inhibitory concentration)” value on GLP1R [3] was “approximately 0.45 µg/kg”. In addition, the self-blocking result on GLP1R in the pancreas was “negligible”.

Take exendin4 [reference compound]: the “affinity for GLP1R” value in the data set on GLP1R [2] is listed as “nanomolar”. Moreover, in the data set on GLP1R [4], the GLP1R agonist potency result is recorded as “subnanomolar”.

The values above are taken from article PMC9051593, “Glucagonlike Peptide-1 Receptor Imaging in Individuals with Type 2 Diabetes” (Journal of Nuclear Medicine, 2022).
